Tested on: androgen receptor (AR)
Assay: AR ELISA assay in LNCaP and/or VCaP cells
Format: cell-based
Conditions: 5 hours
Procedure: 4. AR ELISA Assay Protocol for Table 6
Compounds were evaluated in this assay in LNCaP and/or VCaP cells utilizing similar protocols. The protocols used with VCaP cells are described below. The androgen receptor ELISA assay was performed using PathScani AR Sandwich ELISA (Cell Signaling Catalog #12850) according to the following assay steps:
VCaP cells were seeded at 40,000 cells/well at a volume of 100 μL/well in VCaP assay medium [Phenol red free RPMI (Gibco Cat #11835-030); 5% Charcoal Stripped (Dextran treated) FBS (Omega Scientific, Cat #FB-04); 1% penstrep (Life Technologies, Gibco Cat #: 10378-016)] in Corning 3904 plates. The cells were incubated for a minimum of 3 days. Cells were dosed with PROTACs diluted in 0.01% DMSO and the drug treatment was allowed for 5 hours.
AR ELISA (Cell Signaling) was performed as follows: 1× Cell Signaling Cell lysis buffer was made (Catalogue #9803; comes with the kit). Media from the treated wells is aspirated, and 100 μL 1× cell lysis buffer/well is added. The cells were placed on a shaker for 10 minutes at 4° C. Twenty microliters of lysate was transferred to 100 μl of Diluent in ELISA plate (0.15 μg/ml-0.075 μg/ml). The lysate-diluent mixture was shaken for 30 minutes at 37° C. Allow mouse AR antibody, anti-mouse antibody, TMB, and STOP solution to come to room temperature. The 1× ELISA buffer included in kit was made and loaded in the reservoir. Media from the plates was discarded, the ELISA plate tapped hard on paper towel, and washed 4×200 μl ELISA wash buffer using a plate washer.
One-hundred (100) μL/well of mouse AR detection Ab was added; the plates were covered and shaken at 37° C. for 1 hour; media was discarded from the plates, the plates were tapped on a paper towel, washed 4× with 200 μL ELISA wash buffer with a plate washer.
One-hundred (100) μL/well of anti-mouse—HRP conjugated Ab (comes with the kit) was added; the plates were covered and shaken at 37° C. for 30 minutes; the TMB reagent was allowed to come to room temperature; the media was discard from the plate, the plates were tapped on paper towl, washed 4× with 200 μL of ELISA wash buffer; the plates were tapped the plates on paper towl. One-hundred (100) μL of TMB was added and the plates shaken for 2 minutes—while watching for color development. One-hundred (100) μL Stop solution was added when light blue color developed. Plates were shaken and read at 450 nm.
Progression of prostate cancer in patients treated with anti-androgen therapy usually involves one of several mechanisms of enhanced Androgen Receptor (AR) signaling, including increased intratumoral androgen synthesis, increased AR expression and AR mutations. PROTACs (PROteolysis TArgeting Chimera), which use bi-functional molecules that simultaneously bind a target of choice and an E3 ligase, cause ubiquitination via induced proximity and degradation of the targeted, pathological protein. As opposed to traditional target inhibition, which is a competitive process, degradation is a progressive process. As such, it is less susceptible to increases in endogenous ligand, target expression, or mutations in the target. Thus, this technology appears to be ideal for addressing the mechanisms of AR resistance in patients with prostate cancer. Data was analyzed and plotted using GraphPad Prism software.

Structure (SMILES) | DC50 [nM] | AR Dmax
CC1(C)[C@H](NC(=O)c2ccc(N3CCN(CCCCCOc4ccc5c(c4)CCN(C4CCC(=O)NC4=O)C5=O)CC3)nc2)C(C)(C)[C@H]1Oc1ccc(C#N)c(Cl)c1 (mixture of isomers) [compound 46, N-((1r,3r)-3-(3-chloro-4-cyanophenoxy)-2,2,4,4-tetramethylcyclobutyl)-6-(4-(5-(2-(2,6-dioxopiperidin-3-yl)-1-oxo-1,2,3,4-tetrahydroisoquinolin-6-yloxy)pentyl)piperazin-1-yl)nicotinamide] | < 1 | A (A >= 75)
COc1cc(N2CCN(CC3CCN(c4ccc(C(=O)N[C@H]5CC[C@H](Oc6ccc(C#N)c(Cl)c6)CC5)nn4)CC3)CC2)cc2c1C(=O)N(C1CCC(=O)NC1=O)C2=O (mixture of isomers) [compound 32, rac-N-((1r,4r)-4-(3-chloro-4-cyanophenoxy)cyclohexyl)-6-(4-((4-(2-(2,6-dioxopiperidin-3-yl)-7-methoxy-1,3-dioxoisoindolin-5-yl)piperazin-1-yl)methyl)piperidin-1-yl)pyridazine-3-carboxamide] | < 1 | 
CC1(C)[C@H](NC(=O)c2ccc(N3CCN(CCCCCOc4ccc5nn(C6CCC(=O)NC6=O)c(=O)n5c4)CC3)nc2)C(C)(C)[C@H]1Oc1ccc(C#N)c(Cl)c1 (mixture of isomers) [compound 49, N-((1r,3r)-3-(3-chloro-4-cyanophenoxy)-2,2,4,4-tetramethylcyclobutyl)-6-(4-(5-((2-(2,6-dioxopiperidin-3-yl)-3-oxo-2,3-dihydro-[1,2,4]triazolo[4,3-a]pyridin-6-yl)oxy)pentyl)piperazin-1-yl)nicotinamide] | < 1 | A (A >= 75)
CC(C)N(CC1CCN(c2cnc(C(=O)N[C@H]3CC[C@H](Oc4ccc(C#N)c(Cl)c4)CC3)cn2)CC1)[C@H]1C[C@H](Oc2ccc3c(c2)C(=O)N(C2CCC(=O)NC2=O)C32CC2)C1 (mixture of isomers) [compound 35, rac-N-((1r,4r)-4-(3-chloro-4-cyanophenoxy)cyclohexyl)-5-(4-((((1r,3r)-3-((2′-(2,6-dioxopiperidin-3-yl)-3′-oxospiro[cyclopropane-1,1′-isoindolin]-5′-yl)oxy)cyclobutyl)(isopropyl)amino)methyl)piperidin-1-yl)pyrazine-2-carboxamide] |  | C (C < 50)

Continued, in another order:

DC50 [nM] | Structure (SMILES) | AR Dmax
< 1 | COc1cc(N2CCN(CC3CCN(c4ncc(C(=O)N[C@H]5C(C)(C)[C@H](Oc6ccc(C#N)c(Cl)c6)C5(C)C)cn4)CC3)CC2)cc2c1C(=O)N(C1CCC(=O)NC1=O)C2=O (mixture of isomers) [compound 33, rac-N-((1r,3r)-3-(3-chloro-4-cyanophenoxy)-2,2,4,4-tetramethylcyclobutyl)-2-(4-((4-(2-(2,6-dioxopiperidin-3-yl)-7-methoxy-1,3-dioxoisoindolin-5-yl)piperazin-1-yl)methyl)piperidin-1-yl)pyrimidine-5-carboxamide] | 
< 1 | CC1(C)[C@H](NC(=O)c2ccc(N3CCN(CCCCCOc4ccn5c(=O)n(C6CCC(=O)NC6=O)nc5c4)CC3)nc2)C(C)(C)[C@H]1Oc1ccc(C#N)c(Cl)c1 (mixture of isomers) [compound 48, N-((1r,3r)-3-(3-chloro-4-cyanophenoxy)-2,2,4,4-tetramethylcyclobutyl)-6-(4-(5-((2-(2,6-dioxopiperidin-3-yl)-3-oxo-2,3-dihydro-[1,2,4]triazolo[4,3-a]pyridin-7-yl)oxy)pentyl)piperazin-1-yl)nicotinamide] | B (50 <= B < 75)
< 1 | CC1(C)[C@H](NC(=O)c2ccc(N3CCC(CN4CCN(c5ccn6c(=O)n(C7CCC(=O)NC7=O)nc6c5)CC4)CC3)cc2)C(C)(C)[C@H]1Oc1ccc(C#N)c(Cl)c1 (mixture of isomers) [compound 50, N-((1r,3r)-3-(3-chloro-4-cyanophenoxy)-2,2,4,4-tetramethylcyclobutyl)-4-(4-((4-(2-(2,6-dioxopiperidin-3-yl)-3-oxo-2,3-dihydro-[1,2,4]triazolo[4,3-a]pyridin-7-yl)piperazin-1-yl)methyl)piperidin-1-yl)benzamide] | A (A >= 75)
